Laboratory results: patent US8987193B2, “Nisin derivatives and the use thereof” (University College Cork—National University of Ireland, Cork, priority 2008, dated 2015)
Ends that are not written are not given here.

What was measured:
L. monocytogenes CBC1 = test: Deferred antagonism assay; assay type: cell-based, Listeria monocytogenes; design: key: + = Enhanced bioactivity relative to control; − = Bioactivity equal to or less than control; NA = no activity evident; settings: producing strain; L. mono CBC1
Summary of the method: (§1)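 Well-diffusion testing of purified nisin variants in 0.005% acetic acid, serially diluted, 37° C overnight; AU/ml = reciprocal of last dilution with definite zone × 20. Deferred antagonism: overnight GM17 colonies overlaid with seeded soft agar (0.75%); zone = clearing diameter minus 5 mm.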

L. monocytogenes CBC2 = test: Deferred antagonism assay; assay type: cell-based, Listeria monocytogenes; design: key: + = Enhanced bioactivity relative to control; − = Bioactivity equal to or less than control; NA = no activity evident; settings: producing strain; L. mono CBC2
Summary of the method: as §1

L. monocytogenes CBC3 = test: Deferred antagonism assay; assay type: cell-based, Listeria monocytogenes; design: key: + = Enhanced bioactivity relative to control; − = Bioactivity equal to or less than control; NA = no activity evident; settings: producing strain; L. mono CBC3
Summary of the method: as §1

L. lactis CBC7 = test: Deferred antagonism assay; assay type: cell-based; design: key: + = Enhanced bioactivity relative to control; − = Bioactivity equal to or less than control; NA = no activity evident; settings: producing strain
Summary of the method: as §1

L. lactis CBC8 = test: Deferred antagonism assay; assay type: cell-based; design: key: + = Enhanced bioactivity relative to control; − = Bioactivity equal to or less than control; NA = no activity evident; settings: producing strain
Summary of the method: as §1

S. aureus CBC4 = test: Deferred antagonism assay; assay type: cell-based; design: key: + = Enhanced bioactivity relative to control; − = Bioactivity equal to or less than control; NA = no activity evident; settings: producing strain
Summary of the method: as §1

L. plantarum CBC6 = test: Deferred antagonism assay; assay type: cell-based, Lactobacillus plantarum; design: key: + = Enhanced bioactivity relative to control; − = Bioactivity equal to or less than control; NA = no activity evident; settings: producing strain
Summary of the method: as §1

Listeria innocua CLIP = test: Deferred antagonism assay; assay type: cell-based; design: key: −, no inhibition; (+), clear zone directly above the colony; +, 1-5 mm zone; ++, 6-10 mm zone; +++, <10 mm zone; settings: nisin strain
Description: (§2) Deferred antagonism assays were performed by replicating strains on GM17 or GM17 x-gal agar plates and allowing them to grow overnight before overlaying with either GM17/BHI/TS/MH agar (0.75% w/v agar) seeded with the appropriate indicator strain. Zone size was calculated as the diameter of the zone of clearing minus the diameter of bacterial growth (5 mm) For higher throughput screening of N20PXX, XM21VX, XXK22T and XXX banks deferred antagonism assays were performed by replicating strains using a 96 pin replicator (Boekel) or spotting 5 μl of a fresh overnight culture on GM17 agar plates and allowing them to grow overnight. […] Additional sets of indicators were employed to further assess/reassess the bioactivity of a number of strains. […] For well-diffusion assays molten agar was cooled to 48° C. and seeded with the appropriate indicator strain. The inoculated medium was rapidly transferred into sterile Petri plates in 50 ml volumes, allowed to solidify and dried. Wells (4.6 mm in diameter) were then made in the seeded plates. Purified nisin and mutant nisins were resuspended in 0.005% acetic acid, serially diluted, 50 μl volumes were dispensed into the aforementioned wells and the plates incubated at 37° C. overnight. Bioactivity was expressed as arbitrary units/ml (AU/ml) and calculated as the reciprocal of the highest dilution that gave a definite zone multiplied by the conversion factor (i.e. 20 when 50 μl was used) (Ryan et al., 1996).

[1] = test system: Listeria monocytogenes 33015; test: Deferred antagonism assay; assay type: cell-based; design: key: −, no inhibition; (+), clear zone directly above the colony; +, 1-5 mm zone; ++, 6-10 mm zone; +++, <10 mm zone; settings: nisin strain; L. monocytogenes 33015
Description: as §2

[2] = test system: Listeria monocytogenes 33028; test: Deferred antagonism assay; assay type: cell-based; design: key: −, no inhibition; (+), clear zone directly above the colony; +, 1-5 mm zone; ++, 6-10 mm zone; +++, <10 mm zone; settings: nisin strain; L. monocytogenes 33028
Description: as §2

[3] = test system: Listeria monocytogenes 33068; test: Deferred antagonism assay; assay type: cell-based; design: key: −, no inhibition; (+), clear zone directly above the colony; +, 1-5 mm zone; ++, 6-10 mm zone; +++, <10 mm zone; settings: nisin strain; L. monocytogenes 33068
Description: as §2

[4] = test system: Listeria monocytogenes 33115; test: Deferred antagonism assay; assay type: cell-based; design: key: −, no inhibition; (+), clear zone directly above the colony; +, 1-5 mm zone; ++, 6-10 mm zone; +++, <10 mm zone; settings: nisin strain; L. monocytogenes 33115
Description: as §2

[5] = test system: Listeria monocytogenes 33226; test: Deferred antagonism assay; assay type: cell-based; design: key: −, no inhibition; (+), clear zone directly above the colony; +, 1-5 mm zone; ++, 6-10 mm zone; +++, <10 mm zone; settings: nisin strain; L. monocytogenes 33226
Description: as §2

[6] = test system: Listeria monocytogenes 33233; test: Deferred antagonism assay; assay type: cell-based; design: key: −, no inhibition; (+), clear zone directly above the colony; +, 1-5 mm zone; ++, 6-10 mm zone; +++, <10 mm zone; settings: nisin strain; L. monocytogenes 33233
Description: as §2

[7] = test system: Listeria monocytogenes N3008; test: Deferred antagonism assay; assay type: cell-based; design: key: −, no inhibition; (+), clear zone directly above the colony; +, 1-5 mm zone; ++, 6-10 mm zone; +++, <10 mm zone; settings: nisin strain; L. monocytogenes N3008
Description: as §2

[8] = test system: 30 L. monocytogenes and 3 L. innocua strains; test: Deferred antagonism assay, collection of Listeria strains; assay type: cell-based; settings: of 30 L. monocytogenes and 3 L. innocua strains
Description: as §2

| Substance | Bioactivity relative to control (L. monocytogenes CBC1) | Bioactivity relative to control (L. monocytogenes CBC2) | Bioactivity relative to control (L. monocytogenes CBC3) | Bioactivity relative to control (L. lactis CBC7) | Bioactivity relative to control (L. lactis CBC8) | Bioactivity relative to control (S. aureus CBC4) | Bioactivity relative to control (L. plantarum CBC6) | Activity score (zone) (Listeria innocua CLIP) | Activity score (zone) [1] | Activity score (zone) [2] | Activity score (zone) [3] | Activity score (zone) [4] | Activity score (zone) [5] | Activity score (zone) [6] | Activity score (zone) [7] | number of strains with enhanced bioactivity (relative to the control) [8] | number of strains with equal levels of bioactivity [8] | number of strains with reduced activity [8] |
| --- | --- | --- | --- | --- | --- | --- | --- | --- | --- | --- | --- | --- | --- | --- | --- | --- | --- | --- |
| NisinA K22A (ITSISLCTPGCKTGALMGCNMATATCHCSIHVSK; not fully specified; also: lantibiotic: lanthionine rings and dehydro residues not placed; UniProt P13068 24-57, looked up, variant K22A) [nisin A derivative, hinge substitution K22A] | − | + | − | − | + | − | − | + (+, 1-5 mm zone) | + (+, 1-5 mm zone) | + (+, 1-5 mm zone) | − | + (+, 1-5 mm zone) | + (+, 1-5 mm zone) | + (+, 1-5 mm zone) | + (+, 1-5 mm zone) | 16 | 17 |  |
| NisinA M21G (ITSISLCTPGCKTGALMGCNGKTATCHCSIHVSK; not fully specified; also: lantibiotic: lanthionine rings and dehydro residues not placed; UniProt P13068 24-57, looked up, variant M21G) [nisin A derivative, hinge substitution M21G] | − | + | − | − | − | + | − | + (+, 1-5 mm zone) | − | − | − | − | − | − | − | 10 | 19 | 4 |
| NisinA M21I (ITSISLCTPGCKTGALMGCNIKTATCHCSIHVSK; not fully specified; also: lantibiotic: lanthionine rings and dehydro residues not placed; UniProt P13068 24-57, looked up, variant M21I) [nisin A derivative, hinge substitution M21I] | − | + | − | + | + | + | − | − | + (+, 1-5 mm zone) | + (+, 1-5 mm zone) | − | − | + (+, 1-5 mm zone) | + (+, 1-5 mm zone) | + (+, 1-5 mm zone) | 17 | 15 | 1 |
| NisinA M21S (ITSISLCTPGCKTGALMGCNSKTATCHCSIHVSK; not fully specified; also: lantibiotic nisin: dehydrated residues and thioether rings not placed; UniProt P13068 24-57, looked up, variant M21S) [nisin A derivative, hinge substitution M21S] | − | + | + | − | + | + | − | + (+, 1-5 mm zone) | + (+, 1-5 mm zone) | ++ (++, 6-10 mm zone) | + (+, 1-5 mm zone) | (+) | + (+, 1-5 mm zone) | + (+, 1-5 mm zone) | ++ (++, 6-10 mm zone) | 26 | 7 |  |
